Measured values taken from patent US12697366B2, “Thermogenic compositions and methods” (Ohio State Innovation Foundation, priority 2016, dated 2026).

What was measured:
[1] = tested on: iAb (omental) fat explants; assay: LEP release from iAb (omental) fat explants of an obese patient (ELISA); assay type: cell-based, human; conditions: different EREG concentrations, 2 h
Experimental: FIGS. 14A to 14N show EREG induces expression of thermogenic and PPARα-target genes, suppresses inflammatory genes, and stimulates leptin secretion. FIGS. 14A to 14H and 14L: Markers for thermogenesis, adipogenesis, and inflammatory genes were analyzed using homogenates from whole iAb fat pads isolated from Veh- (white bars) and EREG-treated (black bars) DIO mice (Study 3). Gene expression was quantified using a customized NanoString panel. Data represent mean±SD, n.s.,—non-significant. FIG. 14I: LEP was measured in plasma in the same mice by ELISA. Data (mean±SD) are shown as percent to control (Veh, 100%) and is indicated as a dashed line. FIG. 14J: LEP release after stimulation with different concentrations of recombinant human EREGs was measured in explants of iAb (omental) tissue obtained from an obese insulin resistant patient. FIG. 14K: LEP release after stimulation of explants from same donor with and without EREG (50 ng/mL) in the presence and absence of insulin (Ins, 10 μg/mL), MAPK-I, EGFR-I, PI3K-I. Inhibitors concentrations were described in FIG. 1. FIG. 14M: LEP release after stimulation of iAb fat explants (2 h) from WT mice with different concentrations of recombinant mouse EREG. Experiment was repeated in three different WT mice. Data (mean±SD) are shown as percent to control (Veh, 100%). FIG. 14N: LEP release following stimulation of iAb fat explants (2 h) from WT mice with inhibitors of EGFR (10 μM) and MAPK (10 μM) in the presence or absence of EREG (50 ng/ml). Data (mean±SD) are shown as percent to control (Veh, 100%).
Abdominal fat tissue obtained from an obese patient was excised into 35 mg sections for stimulation with EREG. Explants were stimulated with EREG in DMEM containing 1% FBS for 2 h. Media was collected after 2 h, lyophilized and reconstituted in 120 μL deionized water for leptin detection using ELISA kit (Alpco, Salem, NH).

ob/ob mice = assay: Study 4 (Example 2): EREG injected into epididymal iAb fat of ob/ob mice; assay type: in vivo, mouse
Experimental: 6-week old Ob/Ob male mice, purchased from the Jackson laboratory (n=10), were fed a high fat diet (HF, 45% kcal from fat, D12451, Research Diet Inc., New Brunswick, NJ) for 30 days and then randomly assigned into two groups: • 1) a control group injected with 0.1 mL sterile PBS into both epididymal iAb fat (n=5), and • 2) EREG-treated group injected with 60 ng EREG per epididymal iAb fat depot (n=5). Mice were injected with 0.1 mL sterile PBS, containing 600 ng EREG/mL. These mice were pair fed and individually housed during injections. […] Metabolic measurements were performed as described in 2.5. WAT were collected for protein, mRNA, and histology. Metabolic parameters in study 2.3 and 2.4 were measured by indirect calorimetry (CLAMS, Columbus Instruments, Columbus, OH) at ambient temperature (22° C.) with 12 h light/dark cycles. Animals were fed the same HF diet and water provided ad libitum. Mice were placed individually and allowed to acclimatize in the chambers for 12 h, and O2 consumption, CO2 production, energy expenditure, and locomotor activity were measured for 24 h. Then temperature was changed to 4° C. for 6 h. […] GTT was performed in overnight fasted Ob/Ob mice (study 4, N=5 per group) by intraperitoneal injection of 0.004 mL 25% glucose/g body weight. One week after GTT, an ITT test was performed in same overnight fasted mice. They were injected with a single intraperitoneal insulin dose (1 mU of insulin/g body weight). Blood glucose was measured from mouse tails by One Touch Ultra glucometer (LifeScan, Wayne, PA).

GLUT4 = assay: GLUT4-GFP translocation in transfected NIH-3T3 cells (confocal microscopy); assay type: cell-based; conditions: insulin 10 μg/mL, nanoscaffold 10 μM
From the text: FIGS. 30A to 30D show translocation of GLUT4 (the major glucose transporter of adipocytes). Non-differentiated NIH-3[…][…]-GFP plasmid ([…] #52872) on Petri-35 dishes with coverslip ([…], cat #[…]-1.5-14-C, USA). […] FIG. 30A: GLUT4 (white vesicles) in cells (arrow) treated with vehicle are mainly in the cytosol. […] All images were taken at 60× magnification.

Substance | release of LEP from iAb fat explants [1] | RER during the light cycle (ob/ob mice; EREG-treated vs control) | activity after transition from ambient temperature to the cold (ob/ob mice; EREG-treated vs control) | weight gain (ob/ob mice; after 6 weeks of treatment with EREG) | expression of PPARα target genes and mitochondrial genes in iAb fat (ob/ob mice; between groups) | metabolic rate before and during cold exposure (ob/ob mice; between groups) | response to insulin (ITT) (ob/ob mice; between groups) | glucose tolerance (GTT) (ob/ob mice; compared to non-treated group) | weight of BAT, WAT depot and liver (ob/ob mice; mouse, in vivo) | food intake (ob/ob mice; pair-fed HF diet) | GLUT4 translocation (GLUT4)
EREG: Epiregulin, member of the epidermal growth factor family; recombinant mouse or human protein | dose dependent release | significantly lower | higher | reduced | similar | identical | similar | markedly improved | not associated with significant changes | identical | 
insulin: insulin (bovine or human) |  |  |  |  |  |  |  |  |  |  | translocated from cytosol to membrane
